Test results as given in patent US20200071310A1, “N-ARYL PYRAZOLES AS NRF2 REGULATORS” (GLAXOSMITHKLINE INTELLECTUAL PROPERTY DEVELOPMENT LIMITED, priority 2016, published 2020).
Counter-ions that a name gives are not always drawn.

Assays:
[1] = test system: NQO1 specific enzyme activity in BEAS-2B cells; assay: BEAS-2B NQO1 MTT Assay; type: cell-based; settings: Homo sapiens; NQO1 specific activity induction, BEAS-2B cells, 48 hours; read-out: EC50
Text: NAD(P)H:quinone oxidoreductase 1 (NQO1), also called DT diaphorase, is a homodimeric FAD-containing enzyme that catalyzes obligatory NAD(P)H-dependent two-electron reductions of quinones and protects cells against the toxic and neoplastic effects of free radicals and reactive oxygen species arising from one-electron reductions. The transcription of NQO1 is finely regulated by NRF2, and thus NQO1 activity is a good marker for NRF2 activation. On day one, frozen BEAS-2B cells (ATCC) were thawed in a water bath, counted, and re-suspended at a concentration of 250,000 cells/mL. Fifty microliters of cells were plated in 384 well black clear-bottomed plates. Plates were incubated at 37° C., 5% CO2 overnight. On day two, plates were centrifuged and 50 nL of compound or controls were added to the cells. Plates were then incubated at 37° C., 5% CO2 for 48 hours. On day four, medium was aspirated from the plate and crude cell lysates were made by adding 13 uL of 1× Cell Signaling Technologies lysis buffer with 1 Complete, Mini, EDTA-free Protease Inhibitor Tablet (Roche) for each 10 mL of lysis buffer. After lysis plates were incubated for 20 minutes at room temperature. Two microliters of lysate were removed for use in Cell Titer Glo assay (Promega) and MTT cocktail was prepared (Prochaska et. al. 1998) for measurement of NQO1 activity. Fifty microliters of MTT cocktail is added to each well, plate is centrifuged, and analyzed on an Envision plate reader (Perkin Elmer) using Absorbance 570 nm label for 30 minutes. Product formation was measured kinetically and the pEC50 of NQO1 specific activity induction was calculated by plotting the change in absorbance (Delta OD/min) versus the log of compound concentration followed by 3-parameter fitting. pEC50 is the negative log of the EC50.

[2] = molecular target: T1, Keap1 (321-609) Kelch domain / TAMRA-labeled NRF2 peptide (ETGE motif) (Homo sapiens, UniProt Q14145); assay: NRF2-Keap1 FP Assay; type: binding; settings: Keap1 (321-609) 20 nM, Tamra labeled peptide 8 nM
T1 construct: the Kelch domain (321-609) of Keap1 is used
Text: One model for the NRF2-Keap1 interaction is through two binding sites in the Neh2 domain on NRF2. The two sites are referred to as the DLG binding motif (latch domain, uM affinity) and the ETGE binding motif (hinge domain, nM affinity). The Keap1 protein consists of an N-terminal region (NTR), a broad complex, tramtrack, and brick a' brac domain (BTB), an intervening region (IVR), a double glycine repeat domain (DGR or Kelch), and a C-terminal region. The DLG and ETGE motifs of NRF2's Neh2 domain bind to the Kelch domain of Keap1 at different affinities. In the Keap1 Kelch fluorescence polarization (FP) assay, a TAMRA-labeled 16mer peptide (AFFAQLQLDEETGEFL) containing the ETGE motif of NRF2 and the Kelch domain (321-609) of Keap1 is used. The assay determines if a compound interferes with the binding between Keap1 […] and the TAMRA-labeled peptide. Binding of TAMRA-labeled NRF2 peptide to Keap1 (321-609) results in a high FP signal. If a compound interferes with the binding between the peptide and the protein, it will cause the assay signal to decrease. Thus, assay signal is inversely proportional to binding inhibition.
100 nl of 100× compound dose response curves (serial 3-fold dilutions) in DMSO were stamped using an Echo liquid handling system (Labcyte) into 384-well low volume black assay plates (Greiner, #784076), with DMSO in columns 6 and 18. The top concentration of compound was located in columns 1 and 13. Keap1 (321-609) was diluted to 40 nM (2×) in 1× assay buffer (50 mM Tris, pH 8.0, 100 mM NaCl, 5 mM MgCl2, 1 mM DTT, 2 mM CHAPS, and 0.005% BSA) and 5 ul was added using a Multidrop Combi (Thermo Electron Corporation) equipped with a metal tip dispenser to all wells of the compound plate, except column 18. Column 18 received only 5 ul of assay buffer. Immediately, 5 uL of 16 nM (2×) of Tamra labeled peptide (AFFAQLQLDEETGEFL, 21st Century Biochemicals) was added to all wells of the plate. The plates were spun at 500 rpm for 1 min, incubated for 1 hr at room temperature, and read on an Analyst GT (Molecular Devices) equipped with excitation (530/25 nm) and emission (580/10 nm) filters designed for Tamra probes. A 561 nm dichroic mirror was also used in the Analyst. The final assay concentrations of Keap1l (321-609) and Tamra labeled peptide were 20 nM and 8 nM, respectively. Fluorescence measurements, represented as mP, were used in the transformation of the data. Compound activity was calculated based on percent inhibition, normalized against controls in the assay (Control 1 contains the Tamra peptide and Keap1 (321-609) together (0% response) and control 2 contains the Tamra peptide alone (100% response)). Data analysis was handled using the software package Abase XE (Surrey, United Kingdom. The % inhibition values were calculated by the equation:
100−(100*((compound response−average control 2)/(average control 1−average control2))).
For calculation of pIC50s, Abase XE used a four parameter equation.
IC50s<1 nM (+++++), IC50s 1 nM-10 nM (++++), IC50s 10-100 nM (+++), IC50s 100 nM-1 μM (++), IC50s 1-10 μM (+), IC50s>10 μM (−), or were not determined (ND).

T1 sequence (Q14145 321-609): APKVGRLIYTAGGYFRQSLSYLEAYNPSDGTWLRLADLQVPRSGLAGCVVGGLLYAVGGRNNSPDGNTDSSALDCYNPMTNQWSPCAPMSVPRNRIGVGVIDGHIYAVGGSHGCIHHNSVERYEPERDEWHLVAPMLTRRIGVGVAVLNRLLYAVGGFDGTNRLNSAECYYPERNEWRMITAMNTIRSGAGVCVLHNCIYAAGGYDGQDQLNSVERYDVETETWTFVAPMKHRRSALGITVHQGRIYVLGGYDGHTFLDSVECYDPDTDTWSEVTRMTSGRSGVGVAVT

Row | SMILES | EC50 [1] [nM] | EC50 [2] [nM]
1 | COc1ccc(Br)cc1S(=O)(=O)N(C)Cc1cccc(-n2ncc(C(=O)O)c2[C@@H]2C[C@H]2c2cn(C)nn2)c1 (racemic) [Example 43, 1-(3-((5-bromo-2-methoxy-N-methylphenylsulfonamido)methyl)phenyl)-5-((trans)-2-(1-methyl-1H-1,2,3-triazol-4-yl)cyclopropyl)-1H-pyrazole-4-carboxylic acid] | 1000 to 10000 | 100 to 1000
2 | COc1cc([N+](=O)[O-])ccc1S(=O)(=O)N(C)Cc1cccc(-n2ncc(C(=O)O)c2[C@@H]2C[C@H]2c2cn(C)nn2)c1 (racemic) [Example 44, 1-(3-((2-methoxy-N-methyl-4-nitrophenylsulfonamido)methyl)phenyl)-5-((trans)-2-(1-methyl-1H-1,2,3-triazol-4-yl)cyclopropyl)-1H-pyrazole-4-carboxylic acid] | 1000 to 10000 | 100 to 1000
3 | CCOc1ccccc1S(=O)(=O)N(C)Cc1cccc(-n2ncc(C(=O)O)c2[C@@H]2C[C@H]2c2cn(C)nn2)c1 (racemic) [Example 45, 1-(3-((2-ethoxy-N-methylphenylsulfonamido)methyl)phenyl)-5-((trans)-2-(1-methyl-1H-1,2,3-triazol-4-yl)cyclopropyl)-1H-pyrazole-4-carboxylic acid] | 1000 to 10000 | 100 to 1000
4 | CN(Cc1cccc(-n2ncc(C(=O)O)c2[C@@H]2C[C@H]2c2cn(C)nn2)c1)S(=O)(=O)c1ccccc1OC(F)(F)F (racemic) [Example 46, 5-((trans)-2-(1-methyl-1H-1,2,3-triazol-4-yl)cyclopropyl)-1-(3-((N-methyl-2-(trifluoromethoxy)phenylsulfonamido)methyl)phenyl)-1H-pyrazole-4-carboxylic acid] | 1000 to 10000 | 100 to 1000
5 | COc1ccccc1S(=O)(=O)N(C)Cc1cccc(-n2ncc(C(=O)O)c2[C@@H]2C[C@H]2c2cn(C)nn2)c1 (racemic) [Example 47, 1-(3-((2-methoxy-N-methylphenylsulfonamido)methyl)phenyl)-5-((trans)-2-(1-methyl-1H-1,2,3-triazol-4-yl)cyclopropyl)-1H-pyrazole-4-carboxylic acid] | 10 to 100 | 100 to 1000
6 | CN(Cc1cccc(-n2ncc(C(=O)O)c2[C@@H]2C[C@H]2c2cn(C)nn2)c1)S(=O)(=O)c1ccccc1 (racemic) [Example 48, 5-((trans)-2-(1-methyl-1H-1,2,3-triazol-4-yl)cyclopropyl)-1-(3-((N-methylphenylsulfonamido)methyl)phenyl)-1H-pyrazole-4-carboxylic acid] | 1000 to 10000 | 100 to 1000
7 | CCCCCCN(Cc1cccc(-n2ncc(C(=O)O)c2[C@@H]2C[C@H]2c2cn(C)nn2)c1)S(=O)(=O)c1ccccc1Oc1ccccc1 (racemic) [Example 49, 1-(3-((N-hexyl-2-phenoxyphenylsulfonamido)methyl)phenyl)-5-((trans)-2-(1-methyl-1H-1,2,3-triazol-4-yl)cyclopropyl)-1H-pyrazole-4-carboxylic acid] | 100 to 1000 | 100 to 1000
8 | CCCN(Cc1cccc(-n2ncc(C(=O)O)c2[C@@H]2C[C@H]2c2cn(C)nn2)c1)S(=O)(=O)c1ccccc1C (racemic) [Example 50, 5-((trans)-2-(1-methyl-1H-1,2,3-triazol-4-yl)cyclopropyl)-1-(3-((2-methyl-N-propylphenylsulfonamido)methyl)phenyl)-1H-pyrazole-4-carboxylic acid] | 10 to 100 | 100 to 1000
9 | CN(Cc1cccc(-n2ncc(C(=O)O)c2[C@@H]2C[C@H]2c2cn(C)nn2)c1)S(=O)(=O)c1cccc2cccnc12 (racemic) [Example 51, 5-((trans)-2-(1-methyl-1H-1,2,3-triazol-4-yl)cyclopropyl)-1-(3-((N-methylquinoline-8-sulfonamido)methyl)phenyl)-1H-pyrazole-4-carboxylic acid] | 100 to 1000 | 100 to 1000
10 | COc1ccccc1S(=O)(=O)NCc1cccc(-n2ncc(C(=O)O)c2[C@@H]2C[C@H]2c2cn(C)nn2)c1 (racemic) [Example 52, 1-(3-((2-methoxyphenylsulfonamido)methyl)phenyl)-5-((trans)-2-(1-methyl-1H-1,2,3-triazol-4-yl)cyclopropyl)-1H-pyrazole-4-carboxylic acid] | 100 to 1000 | 100 to 1000
11 | COc1ccccc1S(=O)(=O)N(Cc1cccc(-n2ncc(C(=O)O)c2[C@@H]2C[C@H]2c2cn(C)nn2)c1)C1CC1 (racemic) [Example 53, 1-(3-((N-cyclopropyl-2-methoxyphenylsulfonamido)methyl)phenyl)-5-((trans)-2-(1-methyl-1H-1,2,3-triazol-4-yl)cyclopropyl)-1H-pyrazole-4-carboxylic acid] | 100 to 1000 | 1000 to 10000
12 | CCOc1ccc(Br)cc1CN(C)Cc1cccc(-n2ncc(C(=O)O)c2[C@@H]2C[C@H]2c2cn(C)nn2)c1 (racemic) [Example 54, 1-(3-(((5-bromo-2-ethoxybenzyl)(methyl)amino)methyl)phenyl)-5-((trans)-2-(1-methyl-1H-1,2,3-triazol-4-yl)cyclopropyl)-1H-pyrazole-4-carboxylic acid trifluoroacetate] | 100 to 1000 | 100 to 1000
13 | CCCCCCN(Cc1cccc(-n2ncc(C(=O)O)c2[C@@H]2C[C@H]2c2cnn(C)c2)c1)S(=O)(=O)c1ccccc1C (racemic) [Example 56] | 100 to 1000 | 1000 to 10000
14 | Cc1cc([C@@H]2C[C@H]2c2c(C(=O)O)cnn2-c2cccc(CN3C[C@@H](C)Cc4cc(C(F)(F)F)ccc4S3(=O)=O)c2)on1 (racemic) [Example 57, 1-(3-(((S)-4-Methyl-1,1-dioxido-7-(trifluoromethyl)-4,5-dihydrobenzo[f][1,2]thiazepin-2(3H)-yl)methyl)phenyl)-5-(trans-2-(3-methylisoxazol-5-yl)cyclopropyl)-1H-pyrazole-4-carboxylic acid] | 100 to 1000 | 100 to 1000
15 | CCCCCCN(Cc1cccc(-n2ncc(C(=O)O)c2[C@@H]2C[C@H]2c2cn(C)nn2)c1)S(=O)(=O)c1ccc(Oc2ccccc2)cc1 (relative stereo) [Example 36, 1-(3-((N-hexyl-4-phenoxyphenylsulfonamido)methyl)phenyl)-5-((trans)-2-(1-methyl-1H-1,2,3-triazol-4-yl)-cyclopropyl)-1H-pyrazole-4-carboxylic acid] | 100 to 1000 | 10 to 100
